Results on eight cell lines are retold here after the supplement of paper PMC10307832.

Assay in all cases: relative viability (nuclei count vs DMSO), 5 days (fraction); higher = more cells survive
Compound in the assay “Vemurafenib + Pemetrexed”: CCCS(=O)(=O)Nc1ccc(F)c(C(=O)c2c[nH]c3ncc(-c4ccc(Cl)cc4)cc23)c1F [Vemurafenib] + Nc1nc2[nH]cc(CCc3ccc(C(=O)N[C@@H](CCC(=O)O)C(=O)O)cc3)c2c(=O)[nH]1 [Pemetrexed] (partner 0.2 µM)
The procedure, abridged: (§1)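 Lung cancer cell lines, seeded in 1536-well plates, were treated the following day by pin tool with a single drug or with five library-drug doses (not always all listed) in √10 steps on top of a fixed anchor-drug dose. Cells were fixed and nuclei stained in one step after 5 days, and nuclei were counted. Relative viability is the nuclei count for treated wells divided by that for vehicle wells, reported as medians of duplicate plates.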

Compound in the assay “Vemurafenib + Phenformin”: CCCS(=O)(=O)Nc1ccc(F)c(C(=O)c2c[nH]c3ncc(-c4ccc(Cl)cc4)cc23)c1F [Vemurafenib] + N=C(N)NC(=N)NCCc1ccccc1 [Phenformin] (partner 250 µM)
The procedure, abridged: as §1

Compound in the assay “Vemurafenib + Tozasertib”: CCCS(=O)(=O)Nc1ccc(F)c(C(=O)c2c[nH]c3ncc(-c4ccc(Cl)cc4)cc23)c1F [Vemurafenib] + Cc1cc(Nc2cc(N3CCN(C)CC3)nc(Sc3ccc(NC(=O)C4CC4)cc3)n2)n[nH]1 [Tozasertib] (partner 0.1 µM)
The method, boiled down: as §1

Compound in the assay “OSI-027 + Palbociclib”: COc1cccc2cc(-c3nc([C@H]4CC[C@H](C(=O)O)CC4)n4ncnc(N)c34)[nH]c12 [OSI-027] + CC(=O)c1c(C)c2cnc(Nc3ccc(N4CCNCC4)cn3)nc2n(C2CCCC2)c1=O [Palbociclib] (partner 0.5 µM)
The method, boiled down:
as §1

On to HCC-44, for which the relative viability in the assay with Vemurafenib + Pemetrexed (first compound 0.03162 µM) was 0.617; with Vemurafenib + Pemetrexed (first compound 0.1 µM) it was 0.609; with Vemurafenib + Pemetrexed (first compound 0.3162 µM), 0.654; in the assay with Vemurafenib + Pemetrexed (first compound 1 µM) it was 0.625; with Vemurafenib + Phenformin (first compound 0.03162 µM), 0.157; with Vemurafenib + Phenformin (first compound 0.1 µM), 0.206. For the same cell line, the relative viability is 0.213 with Vemurafenib + Phenformin (first compound 1 µM); 0.829 with Vemurafenib + Tozasertib (first compound 0.03162 µM); 0.917 with Vemurafenib + Tozasertib (first compound 0.1 µM); 0.763 with Vemurafenib + Tozasertib (first compound 1 µM); 0.904 with OSI-027 + Palbociclib (first compound 0.01 µM); 0.945 with OSI-027 + Palbociclib (first compound 0.03162 µM). In addition, the relative viability with OSI-027 + Palbociclib (first compound 0.1 µM) is 0.955; with OSI-027 + Palbociclib (first compound 0.3162 µM), 0.929; in the assay with OSI-027 + Palbociclib (first compound 1 µM) it was 0.877.

For NCI-H2347, the relative viability was 0.413 with Vemurafenib + Pemetrexed (first compound 0.03162 µM); 0.441 with Vemurafenib + Pemetrexed (first compound 0.1 µM); 0.357 with Vemurafenib + Pemetrexed (first compound 0.3162 µM); 0.412 with Vemurafenib + Pemetrexed (first compound 1 µM); 0.33 with Vemurafenib + Phenformin (first compound 0.03162 µM); 0.38 with Vemurafenib + Phenformin (first compound 0.1 µM). Besides, the relative viability with Vemurafenib + Phenformin (first compound 0.3162 µM) worked out at 0.463; with Vemurafenib + Phenformin (first compound 1 µM), 0.234; with Vemurafenib + Tozasertib (first compound 0.03162 µM) it was 0.452; in the assay with Vemurafenib + Tozasertib (first compound 0.1 µM), 0.53; in the assay with Vemurafenib + Tozasertib (first compound 0.3162 µM) it was 0.507; with Vemurafenib + Tozasertib (first compound 1 µM), 0.482. Also, the relative viability came out at 0.41 in the assay with OSI-027 + Palbociclib (first compound 0.01 µM); 0.386 with OSI-027 + Palbociclib (first compound 0.03162 µM); 0.392 in the assay with OSI-027 + Palbociclib (first compound 0.1 µM); 0.358 in the assay with OSI-027 + Palbociclib (first compound 0.3162 µM); 0.392 in the assay with OSI-027 + Palbociclib (first compound 1 µM).

Take LC-2-ad: the relative viability in the assay with Vemurafenib + Pemetrexed (first compound 0.03162 µM) came out at 0.252; in the assay with Vemurafenib + Pemetrexed (first compound 0.1 µM), 0.254; with Vemurafenib + Pemetrexed (first compound 0.3162 µM), 0.249; with Vemurafenib + Pemetrexed (first compound 1 µM), 0.276; in the assay with Vemurafenib + Phenformin (first compound 0.03162 µM), 0.549; in the assay with Vemurafenib + Phenformin (first compound 0.1 µM) it was 0.583. Also, the relative viability with Vemurafenib + Phenformin (first compound 1 µM) was 0.569; with Vemurafenib + Tozasertib (first compound 0.03162 µM), 0.396; with Vemurafenib + Tozasertib (first compound 0.1 µM), 0.466; with Vemurafenib + Tozasertib (first compound 1 µM) it was 0.44; with OSI-027 + Palbociclib (first compound 0.01 µM), 0.548; with OSI-027 + Palbociclib (first compound 0.03162 µM) it was 0.46. Further, the relative viability worked out at 0.516 with OSI-027 + Palbociclib (first compound 0.1 µM), 0.528 in the assay with OSI-027 + Palbociclib (first compound 0.3162 µM) and 0.344 with OSI-027 + Palbociclib (first compound 1 µM).

As to COR-L 105, the relative viability in the assay with Vemurafenib + Pemetrexed (first compound 0.03162 µM) was determined as 0.939; with Vemurafenib + Pemetrexed (first compound 0.3162 µM), 1.2; with Vemurafenib + Pemetrexed (first compound 1 µM) it was 1.05; with Vemurafenib + Phenformin (first compound 0.03162 µM) it was 0.399; with Vemurafenib + Phenformin (first compound 1 µM), 0.5; in the assay with Vemurafenib + Tozasertib (first compound 0.03162 µM) it was 0.394. Moreover, the relative viability with Vemurafenib + Tozasertib (first compound 1 µM) worked out at 0.433; in the assay with OSI-027 + Palbociclib (first compound 0.01 µM), 0.393; with OSI-027 + Palbociclib (first compound 0.03162 µM) it was 0.406; in the assay with OSI-027 + Palbociclib (first compound 0.1 µM), 0.369; with OSI-027 + Palbociclib (first compound 0.3162 µM), 0.389; with OSI-027 + Palbociclib (first compound 1 µM), 0.423.

With NCI-H838, the relative viability is 0.252 with Vemurafenib + Pemetrexed (first compound 0.03162 µM); 0.235 with Vemurafenib + Pemetrexed (first compound 0.1 µM); 0.338 in the assay with Vemurafenib + Pemetrexed (first compound 0.3162 µM); 0.272 in the assay with Vemurafenib + Pemetrexed (first compound 1 µM); 0.506 in the assay with Vemurafenib + Phenformin (first compound 0.03162 µM); 0.581 with Vemurafenib + Phenformin (first compound 0.1 µM). For the same cell line, the relative viability is 0.672 with Vemurafenib + Phenformin (first compound 1 µM); 0.233 with Vemurafenib + Tozasertib (first compound 0.03162 µM); 0.293 in the assay with Vemurafenib + Tozasertib (first compound 0.1 µM); 0.285 with Vemurafenib + Tozasertib (first compound 1 µM); 0.203 with OSI-027 + Palbociclib (first compound 0.01 µM); 0.195 with OSI-027 + Palbociclib (first compound 0.03162 µM). Further, the relative viability with OSI-027 + Palbociclib (first compound 0.1 µM) worked out at 0.191; with OSI-027 + Palbociclib (first compound 0.3162 µM), 0.165; in the assay with OSI-027 + Palbociclib (first compound 1 µM) it was 0.168.

For COR-L23, the relative viability amounted to 0.195 with Vemurafenib + Pemetrexed (first compound 0.03162 µM); 0.198 with Vemurafenib + Pemetrexed (first compound 0.1 µM); 0.186 with Vemurafenib + Pemetrexed (first compound 0.3162 µM); 0.181 in the assay with Vemurafenib + Pemetrexed (first compound 1 µM); 0.38 with Vemurafenib + Phenformin (first compound 0.03162 µM); 0.464 with Vemurafenib + Phenformin (first compound 0.1 µM). Besides, the relative viability was 0.334 in the assay with Vemurafenib + Phenformin (first compound 0.3162 µM); 0.435 with Vemurafenib + Phenformin (first compound 1 µM); 0.14 in the assay with Vemurafenib + Tozasertib (first compound 0.03162 µM); 0.202 with Vemurafenib + Tozasertib (first compound 0.1 µM); 0.181 with Vemurafenib + Tozasertib (first compound 0.3162 µM); 0.143 with Vemurafenib + Tozasertib (first compound 1 µM). Also, the relative viability in the assay with OSI-027 + Palbociclib (first compound 0.01 µM) amounted to 0.304; with OSI-027 + Palbociclib (first compound 0.03162 µM), 0.3; with OSI-027 + Palbociclib (first compound 0.1 µM) it was 0.295; with OSI-027 + Palbociclib (first compound 0.3162 µM) it was 0.255; in the assay with OSI-027 + Palbociclib (first compound 1 µM) it was 0.171.

On to EMC-BAC-2, for which the relative viability was determined as 0.447 with Vemurafenib + Pemetrexed (first compound 0.03162 µM); 0.475 in the assay with Vemurafenib + Pemetrexed (first compound 0.1 µM); 0.358 in the assay with Vemurafenib + Pemetrexed (first compound 0.3162 µM); 0.437 with Vemurafenib + Pemetrexed (first compound 1 µM); 0.509 in the assay with Vemurafenib + Phenformin (first compound 0.03162 µM); 0.461 with Vemurafenib + Phenformin (first compound 0.1 µM). In addition, the relative viability in the assay with Vemurafenib + Phenformin (first compound 0.3162 µM) worked out at 0.26; with Vemurafenib + Phenformin (first compound 1 µM), 0.452; with Vemurafenib + Tozasertib (first compound 0.03162 µM), 0.303; in the assay with Vemurafenib + Tozasertib (first compound 0.1 µM) it was 0.28; with Vemurafenib + Tozasertib (first compound 0.3162 µM) it was 0.212; with Vemurafenib + Tozasertib (first compound 1 µM), 0.237. Moreover, the relative viability with OSI-027 + Palbociclib (first compound 0.01 µM) turned out to be 0.488; in the assay with OSI-027 + Palbociclib (first compound 0.03162 µM), 0.499; with OSI-027 + Palbociclib (first compound 0.1 µM), 0.487; with OSI-027 + Palbociclib (first compound 0.3162 µM), 0.398; in the assay with OSI-027 + Palbociclib (first compound 1 µM), 0.348.

Turning to NCI-H3122, the relative viability in the assay with Vemurafenib + Pemetrexed (first compound 0.03162 µM) was 0.206; with Vemurafenib + Pemetrexed (first compound 0.1 µM), 0.188; in the assay with Vemurafenib + Pemetrexed (first compound 0.3162 µM), 0.214; in the assay with Vemurafenib + Pemetrexed (first compound 1 µM) it was 0.203; with Vemurafenib + Phenformin (first compound 0.03162 µM), 0.357; with Vemurafenib + Phenformin (first compound 0.1 µM), 0.372. For the same cell line, the relative viability with Vemurafenib + Phenformin (first compound 0.3162 µM) worked out at 0.292; with Vemurafenib + Phenformin (first compound 1 µM), 0.394; in the assay with Vemurafenib + Tozasertib (first compound 0.03162 µM) it was 0.398; with Vemurafenib + Tozasertib (first compound 0.1 µM), 0.335; with Vemurafenib + Tozasertib (first compound 0.3162 µM), 0.371; with Vemurafenib + Tozasertib (first compound 1 µM), 0.365. Besides, the relative viability was 0.167 in the assay with OSI-027 + Palbociclib (first compound 0.01 µM); 0.177 with OSI-027 + Palbociclib (first compound 0.03162 µM); 0.175 with OSI-027 + Palbociclib (first compound 0.1 µM); 0.168 with OSI-027 + Palbociclib (first compound 0.3162 µM); 0.152 with OSI-027 + Palbociclib (first compound 1 µM).
